Data on 31 compounds can be found in patent US5830864A, “Antiherpes peptide derivatives having a ureido n-terminus” (priority 1995, dated 1998).

*1 amine or outer side, *2 acyl side, *3 side chain or, on linkers, in order; H or OH if unused. Where a SMILES comes first, the peptide text is derived from it. [ ]: non-standard residue; d: D form. The star is where a group is joined. Gly(1-adamantyl) = N[C@H](C(=O)O)C12CC3CC(CC(C3)C1)C2; Asp(3,3-(CH2)4) = N[C@H](C(=O)O)C1(C(=O)O)CCCC1; tBuAla = CC(C)(C)C[C@H](N)C(=O)O; Tle = CC(C)(C)[C@H](N)C(=O)O; NH(3-pentyl) = CCC(CC)N*; Pyrrolidide = C1CCN(*)C1; X2 = CC(C)(C)CC(C)(C)N*; CO = O=C([*:1])[*:2]; X1 = CCCC1(N*)CCCC1; X3 = CCCC(C)(C)N*; X4 = CCCC(CCC)N*

The target of this experiment is HSV-1 ribonucleotide reductase (Human herpesvirus 1, UniProt P08543). Put plainly: biochemical.
HSV-1 ribonucleotide reductase, sequence (P08543 whole entry): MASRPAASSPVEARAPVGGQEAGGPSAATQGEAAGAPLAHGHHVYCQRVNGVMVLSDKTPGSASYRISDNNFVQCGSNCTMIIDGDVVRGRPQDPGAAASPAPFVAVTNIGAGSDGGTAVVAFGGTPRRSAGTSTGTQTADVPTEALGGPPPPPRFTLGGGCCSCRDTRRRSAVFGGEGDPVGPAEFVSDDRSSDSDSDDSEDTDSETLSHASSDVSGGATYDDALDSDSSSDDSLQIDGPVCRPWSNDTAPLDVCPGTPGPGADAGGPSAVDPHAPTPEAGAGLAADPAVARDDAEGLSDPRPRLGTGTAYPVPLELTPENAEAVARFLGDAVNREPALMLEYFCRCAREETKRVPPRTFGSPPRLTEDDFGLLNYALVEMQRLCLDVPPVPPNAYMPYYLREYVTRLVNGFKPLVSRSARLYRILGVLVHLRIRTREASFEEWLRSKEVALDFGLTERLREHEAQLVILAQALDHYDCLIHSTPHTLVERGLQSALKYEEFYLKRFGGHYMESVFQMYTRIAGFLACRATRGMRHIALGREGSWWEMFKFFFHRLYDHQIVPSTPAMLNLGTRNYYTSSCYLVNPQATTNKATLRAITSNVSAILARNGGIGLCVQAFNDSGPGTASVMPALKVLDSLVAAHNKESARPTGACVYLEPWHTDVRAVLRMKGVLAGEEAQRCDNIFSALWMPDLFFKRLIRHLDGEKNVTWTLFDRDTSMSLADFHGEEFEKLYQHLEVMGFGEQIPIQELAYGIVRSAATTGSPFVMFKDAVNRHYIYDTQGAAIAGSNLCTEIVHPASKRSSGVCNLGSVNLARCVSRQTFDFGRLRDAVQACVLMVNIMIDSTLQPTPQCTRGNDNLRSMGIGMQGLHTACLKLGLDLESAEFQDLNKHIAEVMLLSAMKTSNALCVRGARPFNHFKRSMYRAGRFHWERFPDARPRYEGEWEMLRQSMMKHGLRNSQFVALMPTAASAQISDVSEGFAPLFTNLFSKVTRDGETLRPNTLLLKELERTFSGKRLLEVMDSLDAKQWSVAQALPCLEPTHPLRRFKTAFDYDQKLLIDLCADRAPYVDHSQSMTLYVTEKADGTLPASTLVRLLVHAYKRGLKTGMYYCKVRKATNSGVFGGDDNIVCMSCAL
Description: HSV-1 ribonucleotide reductase (partially purified) was obtained from quiescent BHK-21/C13 cells infected with strain F HSV-1 virus at 10 plaque forming units/cell as described by E. A. Cohen et al., J. Gen.
The number of units of the enzyme preparation used in each assay was constant, based on the specific activity of the enzyme preparation.
The IC50 is the concentration that gives 50% inhibition. In the case of `CCCC1(NC(=O)N[C@H](C(=O)N[C@@H](CC(=O)N2CCCC2)C(=O)N[C@H](C(=O)N[C@@H](CC(C)(C)C)C(=O)OCC)C2(C(=O)O)CCCC2)C(C)(C)C)CCCC1` [(1-propylcyclopentyl)-NHC(O)-Tbg-Asp(pyrrolidino)-Asp(cyPn)-γMeLeu-OEt] ({X1-CO}-[Tle]D(Pyrrolidide)[Asp(3,3-(CH2)4)][tBuAla]-OEt), the IC50 is 200 nM.

Compound `CCCC1(NC(=O)N[C@H](C(=O)N[C@@H](CC(=O)N2CCCC2)C(=O)N[C@H](C(=O)N[C@@H](CC(C)(C)C)C(=O)O)C2(C(=O)O)CCCC2)C(C)(C)C)CCCC1` [(1-propylcyclopentyl)-NHC(O)-Tbg-Asp(pyrrolidino)-Asp(cyPn)-γMeLeu-OH] ({X1-CO}-[Tle]D(Pyrrolidide)[Asp(3,3-(CH2)4)][tBuAla]-OH) had an IC50 of 130 nM. Compared with the last compound, the IC50 is about 1.5-fold lower.

The compound `CC(C)(C)C[C@@H](CO)NC(=O)[C@@H](NC(=O)[C@H](CC(=O)N1CCCC1)NC(=O)[C@@H](NC(=O)NCc1ccccc1)C(C)(C)C)C1(C(=O)O)CCCC1` [BzlNHC(O)-Tbg-Asp(pyrrolidino)-Asp(cyPn)-γMeLeucinol] had an IC50 of 410 nM. This IC50 is about 3.2-fold higher than that of the compound before.

Compound `CCC(CC)NC(=O)N[C@H](C(=O)N[C@@H](CC(=O)N1CCCC1)C(=O)N[C@H](C(=O)N[C@@H](CC(C)(C)C)C(=O)O)C1(C(=O)O)CCCC1)C12CC3CC(CC(C3)C1)C2` [Et2 CHNHC(O)--NH-(S)-CH(adamantyl)-C(O)-Asp(pyrrolidino)-Asp(cyPn)-γMeLeu-OH] ({NH(3-pentyl)-CO}-[Gly(1-adamantyl)]D(Pyrrolidide)[Asp(3,3-(CH2)4)][tBuAla]-OH) came in with an IC50 of 82 nM. This IC50 is about 5-fold lower than that of the compound before.

Regarding `CCC(CC)NC(=O)N[C@H](C(=O)N[C@@H](CC(=O)N1CCCC1)C(=O)N[C@H](C(=O)N[C@H](CO)CC(C)(C)C)C1(C(=O)O)CCCC1)C12CC3CC(CC(C3)C1)C2` [Et2 CHNHC(O)--NH-(S)-CH(adamantyl)-C(O)-Asp(pyrrolidino)-Asp(cyPn)-γMeLeucinol], half-maximal inhibition (IC50) was put at 160 nM.

`CCC(CC)NC(=O)N[C@H](C(=O)N[C@@H](CC(=O)N1CCCC1)C(=O)N[C@H](C(=O)NCCC(C)(C)C)C1(C(=O)O)CCCC1)C(C)(C)C` [Et2 CHNHC(O)-Tbg-Asp(pyrrolidino)-Asp(cyPn)-NHCH2 CH2 CMe3] returned an IC50 of 200 nM.

For `CCC(CC)NC(=O)N[C@H](C(=O)N[C@@H](CC(=O)N1CCCC1)C(=O)N[C@H](C(=O)NCC(C)C)C1(C(=O)O)CCCC1)C(C)(C)C` [Et2 CHNHC(O)-Tbg-Asp(pyrrolidino)-Asp(cyPn)-NHCH2 CHMe2], half-maximal inhibition (IC50) required 600 nM.

With `CCC(CC)NC(=O)N[C@H](C(=O)N[C@@H](CC(=O)N1CCCC1)C(=O)N[C@H](C(=O)NCC(C)(C)C)C1(C(=O)O)CCCC1)C(C)(C)C` [Et2 CHNHC(O)-Tbg-Asp(pyrrolidino)-Asp(cyPn)-NHCH2 CMe3], the IC50 was 130 nM.

Compound `CCC(CC)NC(=O)N[C@H](C(=O)N[C@@H](CC(=O)N1CCCC1)C(=O)N[C@H](C(=O)N[C@@H](CC(C)(C)C)C(=O)O)C1(C(=O)O)CCCC1)C(C)(C)C` [Et2 CHNHC(O)-Tbg-Asp(pyrrolidino)-Asp(cyPn)-γMeLeu-OH] ({NH(3-pentyl)-CO}-[Tle]D(Pyrrolidide)[Asp(3,3-(CH2)4)][tBuAla]-OH) returned a half-inhibitory concentration (IC50) of 100 nM. The IC50 values of the last two compounds are within 1.5-fold of each other.

In turn, `CCC(CC)NC(=O)N[C@H](C(=O)N[C@@H](CC(=O)N1CCCC1)C(=O)N[C@H](C(=O)N[C@H](CO)CC(C)(C)C)C1(C(=O)O)CCCC1)C(C)(C)C` [Et2 CHNHC(O)-Tbg-Asp(pyrrolidino)-Asp(cyPn)-γMeLeucinol] registered an IC50 of 98 nM.

`CCC(CC)NC(=O)N[C@H](C(=O)N[C@@H](CC(=O)N1CCCC1)C(=O)N[C@H](C(=O)N[C@@H](CC(C)C)C(=O)O)[C@H](C(=O)O)C(C)C)C(C)(C)C` [Et2 CHNHC(O)-Tbg-Asp(pyrrolidino)-Asp{(R)-iPr}-Leu-OH]: half-maximal inhibition (IC50) was put at 570 nM.

On to `CCC(CC)NC(=O)N[C@H](C(=O)N[C@@H](CC(=O)N1CCCC1)C(=O)N[C@H](C(=O)N[C@@H](CC(C)(C)C)C(=O)O)[C@H](C(=O)O)C(C)C)C(C)(C)C` [Et2 CHNHC(O)-Tbg-Asp(pyrrolidino)-Asp{(R)-iPr}-γMeLeu-OH], for which the IC50 was determined as 72 nM. This IC50 is about 7.9-fold lower than that of the compound before.

On to `CCC(CC)NC(=O)N[C@H](C(=O)N[C@@H](CC(=O)N1CCCC1)C(=O)N[C@H](C(=O)N[C@H](CO)CC(C)(C)C)[C@H](C(=O)O)C(C)C)C(C)(C)C` [Et2 CHNHC(O)-Tbg-Asp(pyrrolidino)-Asp{(R)-iPr}-γMeLeucinol], for which the half-inhibitory concentration (IC50) was 100 nM.

Regarding `CCCC(CC)(CCC)NC(=O)N[C@H](C(=O)N[C@@H](CC(=O)N1CCCC1)C(=O)N[C@H](C(=O)N[C@H](CC)C(C)(C)C)C1(C(=O)O)CCCC1)C(C)(C)C` [EtPr2 CNHC(O)-Tbg-Asp(pyrrolidino)Asp(cyPn)-NH-(R)-CH(Et)CMe3], the IC50 was 140 nM. The IC50 values of the last two compounds are within 1.5-fold of each other.

For the compound `CC(C)NC(=O)N[C@H](C(=O)N[C@@H](CC(=O)N1CCCC1)C(=O)N[C@H](C(=O)N[C@H](CO)CC(C)(C)C)C1(C(=O)O)CCCC1)C(C)(C)C` [Me2 CHNHC(O)-Tbg-Asp(pyrrolidino)-Asp(cyPn)-γMeLeucinol], the IC50 turned out to be 70 nM. This IC50 is about 2-fold lower than that of the compound before.

As for `CC(C)(C)C[C@H](NC(=O)[C@@H](NC(=O)[C@H](CC(=O)N1CCCC1)NC(=O)[C@@H](NC(=O)NC(C)(C)CC(C)(C)C)C(C)(C)C)C1(C(=O)O)CCCC1)C(=O)O` [Me3 CCH2 CMe2 NHC(O)-Tbg-Asp(pyrrolidino)-Asp(cyPn)-γMeLeu-OH] ({X2-CO}-[Tle]D(Pyrrolidide)[Asp(3,3-(CH2)4)][tBuAla]-OH), the IC50 was 180 nM. This IC50 lies about 2.6-fold higher than the previous one.

As for `CC(C)(C)C[C@@H](CO)NC(=O)[C@@H](NC(=O)[C@H](CC(=O)N1CCCC1)NC(=O)[C@@H](NC(=O)NC(C)(C)C)C(C)(C)C)C1(C(=O)O)CCCC1` [Me3 CNHC(O)-Tbg-Asp(pyrrolidino)-Asp(cyPn)-γMeLeucinol], the IC50 is 100 nM.

Compound `CNC(=O)N[C@H](C(=O)N[C@@H](CC(=O)N1CCCC1)C(=O)N[C@H](C(=O)N[C@H](CO)CC(C)(C)C)C1(C(=O)O)CCCC1)C(C)(C)C` [MeNHC(O)-Tbg-Asp(pyrrolidino)-Asp(cyPn)-γMeLeucinol] displayed an IC50 of 890 nM. Against the preceding compound, the IC50 is about 8.9-fold higher.

`CCCC(C)(CCC)NC(=O)N[C@H](C(=O)N[C@@H](CC(=O)N1CCCC1)C(=O)N[C@H](C(=O)NCC(C)(C)C)C1(C(=O)O)CCCC1)C(C)(C)C` [MePr2 CNHC(O)-Tbg-Asp(pyrrolidino)-Asp(cyPn)-NHCH2 CMe3]: the IC50 turned out to be 160 nM.

`CC(C)(C)C[C@@H](CO)NC(=O)[C@@H](NC(=O)[C@H](CC(=O)N1CCCC1)NC(=O)[C@@H](NC(=O)Nc1ccccc1)C(C)(C)C)C1(C(=O)O)CCCC1` [PhNHC(O)-Tbg-Asp(pyrrolidino)-Asp(cyPn)-γMeLeucinol] came in with an IC50 of 710 nM.

`CCCC(CCC)NC(=O)N[C@H](C(=O)N[C@@H](CC(=O)N1CCCC1)C(=O)N[C@H](C(=O)N[C@H](CO)CC(C)(C)C)C1(C(=O)O)CCCC1)C(C)(C)C(=O)O` [Pr2 CHNHC(O)-Asp(diMe)-Asp(pyrrolidino)-Asp(cyPn)-γMeLeucinol] showed an IC50 of 200 nM.

`CCCC(CCC)NC(=O)N[C@H](C(=O)N[C@@H](CC(=O)N1CCCC1)C(=O)N[C@H](C(=O)NCC(C)(C)CC)C1(C(=O)O)CCCC1)C(C)(C)C` [Pr2 CHNHC(O)-Tbg-Asp(pyrrolidino)-Asp(cyPn)-NHCH2 CMe2 Et] returned an IC50 of 240 nM. The IC50 values of the last two compounds are within 1.5-fold of each other.

`CCCC(CCC)NC(=O)N[C@H](C(=O)N[C@@H](CC(=O)N1CCCC1)C(=O)N[C@H](C(=O)NCC(C)(C)C)C1(C(=O)O)CCCC1)C(C)(C)C` [Pr2 CHNHC(O)-Tbg-Asp(pyrrolidino)-Asp(cyPn)-NHCH2 CMe3] had an IC50 of 180 nM. This IC50 and that of the compound before are within 1.5-fold of each other.

The compound `CCCC(CCC)NC(=O)N[C@H](C(=O)N[C@@H](CC(=O)N1CCCC1)C(=O)N[C@H](C(=O)N[C@H](C)C(C)(C)C)C1(C(=O)O)CCCC1)C(C)(C)C` [Pr2 CHNHC(O)-Tbg-Asp(pyrrolidino)-Asp(cyPn)-NHCH(CH3)CMe3] returned an IC50 of 180 nM. In other words, the sub-micromolar range.

On to `CCCC(CCC)NC(=O)N[C@H](C(=O)N[C@@H](CC(=O)N1CCCC1)C(=O)N[C@H](C(=O)N[C@@H](CC(C)(C)C)C(=O)O)C1(C(=O)O)CCCC1)C(C)(C)C` [Pr2 CHNHC(O)-Tbg-Asp(pyrrolidino)-Asp(cyPn)-γMeLeu-OH] ({X4-CO}-[Tle]D(Pyrrolidide)[Asp(3,3-(CH2)4)][tBuAla]-OH), for which the IC50 stood at 96 nM. This IC50 lies about 1.9-fold lower than the previous one.

As to `CCCC(CCC)NC(=O)N[C@H](C(=O)N[C@@H](CC(=O)C1CCC1)C(=O)N[C@H](C(=O)NCC(C)(C)C)C1(C(=O)O)CCCC1)C(C)(C)C` [Pr2 CHNHC(O)-Tbg-NH-(S)-CH(2-cyclobutyl-2-oxoethyl)C(O)-Asp(cyPn)-NHCH2 CMe3], the IC50 stood at 250 nM. This IC50 is about 2.6-fold higher than that of the compound before.

As to `CCCC(CCC)NC(=O)N[C@H](C(=O)N[C@@H](CC(=O)C1CCCC1)C(=O)N[C@H](C(=O)NCC(C)(C)C)C1(C(=O)O)CCCC1)C(C)(C)C` [Pr2 CHNHC(O)-Tbg-NH-(S)-CH(2-cyclopentyl-2-oxoethyl)C(O)-Asp(cyPn)-NHCH2 CMe3], 200 nM corresponded to half-maximal inhibition (IC50).

On to `CCCC(CCC)NC(=O)N[C@H](C(=O)N[C@@H](CC(=O)C1CCCCC1)C(=O)N[C@H](C(=O)NCC(C)(C)C)C1(C(=O)O)CCCC1)C(C)(C)C` [Pr2 CHNHC(O)-Tbg-NHCH(2-cyclohexyl-2-oxoethyl)C(O)-Asp(cyPn)-NHCH2 CMe3], for which the IC50 was found to be 140 nM.

`CCCC(CCC)NC(=O)N[C@H](C(=O)N[C@@H](CC(=O)C(CC)CC)C(=O)N[C@H](C(=O)NCC(C)(C)C)C1(C(=O)O)CCCC1)C(C)(C)C` [Pr2 CHNHC(O)-Tbg-NHCH(3-ethyl-2-oxopentyl)CO-Asp(cyPn)-NHCH2 CMe3] returned a half-inhibitory concentration (IC50) of 400 nM.

`CCCC(C)(C)NC(=O)N[C@H](C(=O)N[C@@H](CC(=O)N1CCCC1)C(=O)N[C@H](C(=O)N[C@@H](CC(C)(C)C)C(=O)O)C1(C(=O)O)CCCC1)C(C)(C)C` [PrMe2 CNHC(O)-Tbg-Asp(pyrrolidino)-Asp(cyPn)-γMeLeu-OH] ({X3-CO}-[Tle]D(Pyrrolidide)[Asp(3,3-(CH2)4)][tBuAla]-OH) registered an IC50 of 100 nM.

Consider `CCCC(CCC)NC(=O)N[C@H](C(=O)N[C@@H](CC(=O)N1CCCC1)C(=O)N[C@H](C(=O)N[C@H](CO)CC(C)(C)C)C1(C(=O)O)CCCC1)C(C)(C)C` [Title Compound of Example 8, Pr2 CHNHC(O)-Tbg-Asp(pyrrolidino)-Asp(cyPn)-γMeLeucinol], for which half-maximal inhibition (IC50) required 80 nM.
